Key:
LGG isolates = assay: Antimicrobial susceptibility (MIC) test, Sensititre COMPGP1F gram-positive panel, CLSI interpretation; type: cell-based, Lactobacillus rhamnosus GG; conditions: all LGG isolates after heat treatment and storage
Experimental: Antimicrobial susceptibility or minimum inhibitory concentration (MIC) test was performed using the Sensititre® system COMPGP1F gram-positive systemic panel. The test used the Clinical and Laboratory Standards Institute (CLSI) guidelines for interpretation of MIC values. All of the isolates were examined for susceptibility to 23 antimicrobial agents included in the gram-positive panel of the National Antimicrobial Resistance Monitoring System (NARMS), including amikacin, ampicillin, augmentin, cefazolin, cefovecin, cefpodoxime, cephalothin, chloramphenicol, clindamycin, doxycycline, enrofloxacin, erythromycin, gentamicin, imipenem, marbofloxacin, minocycline, nitrofurantoin, oxacillin + 2% NaCl, penicillin, pradofloxacin, rifampin, tetracycline, trim/sulfa.

[1] = tested on: Lactobacillus rhamnosus GG (LGG, ATCC 53103); assay: Bacterial survivability test (colony count) of LGG stored in food-grade oils at room temperature; type: physicochemical; conditions: under all conditions
Experimental: PBS at pH 7.4 was used as a control for each temperature. Each individual vial containing 20 mL of oil was heated to reach the desired temperature and the temperature equilibrated for 15-20 minutes. To each heated vial, 0.05 g of LGG powder was added. For prebiotic treatment, 0.05 g of inulin were added before the addition of LGG. The vial containing the oil-bacteria mixture was held at temperature for 1 minute with gentle stirring. Finally, the vial was taken out of the oil bath and cooled to room temperature over a range of 25 to 45 minutes depending on the heating treatments. As control samples, the LGG powder was added to each type of oil and PBS (pH 7.4) with the samples not heated. FIG. 1A illustrates the experimental set up for the heat treatment.
To prevent bacterial growth during storage of probiotics in aqueous solutions, oil was used as a barrier to water penetration and thus serves to preserve and prevent spoilage of the probiotic products. Before the storage of bacteria in oil, the LGG concentration in each type of oil was quantified and recorded as the initial concentration. […] The control medium was 20 mL of PBS at pH 7.4. For the control sample, 0.05 g of the bacteria were added to PBS and, after mixing, cultured on MRS agar plates. […] The survivability of the bacteria was assessed at specific time points over a year using the colony count technique. […]

## oxacillin [oxacillin + 2% NaCl]
LGG isolates
  antimicrobial sensitivity of the isolates (CLSI interpretation of MIC): susceptible

## inulin
[1]
  effect on survival rates of the bacteria: reduced the survival rates

## penicillin
LGG isolates
  antimicrobial sensitivity of the isolates (CLSI interpretation of MIC): resistance

## CC[C@H]1OC(=O)[C@H](C)[C@@H](O[C@H]2C[C@@](C)(OC)[C@@H](O)[C@H](C)O2)[C@H](C)[C@@H](O[C@@H]2O[C@H](C)C[C@H](N(C)C)[C@H]2O)[C@](C)(O)C[C@@H](C)C(=O)[C@H](C)[C@@H](O)[C@]1(C)O [erythromycin]
LGG isolates
  antimicrobial sensitivity of the isolates (CLSI interpretation of MIC): susceptible

## Cc1nnc(SCC2=C(C(=O)O)N3C(=O)[C@@H](NC(=O)Cn4cnnn4)[C@H]3SC2)s1 [cefazolin]
LGG isolates
  antimicrobial sensitivity of the isolates (CLSI interpretation of MIC): resistance

## augmentin
LGG isolates
  antimicrobial sensitivity of the isolates (CLSI interpretation of MIC): susceptible

## CC1(C)S[C@@H]2[C@H](NC(=O)[C@H](N)c3ccccc3)C(=O)N2[C@H]1C(=O)O [ampicillin]
LGG isolates
  antimicrobial sensitivity of the isolates (CLSI interpretation of MIC): intermediate sensitivity

Source: patent publication US20230127202A1, “LONG-TERM PROBIOTIC BACTERIAL STORAGE AT AMBIENT TEMPERATURE” (CORNELL UNIVERSITY, priority 2021, published 2023)
